In patent publication US20110039721A1, “METHOD FOR PREDICTION ABOUT CARCINOGENICITY OF SUBSTANCE IN RODENT” (Chemicals Evaluation and Research Institute, priority 2007, published 2011):

Experiments:
rodent = conditions: in vivo; cited from earlier work
liver = conditions: in vivo; cited from earlier work
[1] = test system: mRNA expressed from the genes (A) to (D) in rat liver; assay: Behavior of genes (mRNA expression level, oligo-DNA microarray) in rat liver after 28-day oral administration; type: in vivo; conditions: mRNA vs vehicle control group
Method in brief: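 Male F344 SPF rats, 5 weeks old, four per group, received carcinogens, non-carcinogens or solvent vehicle by oral gavage once daily for 28 days. Liver total RNA was then extracted. Changes of ≥1.5-fold or ≤1/1.5 versus vehicle control, in a consistent direction across carcinogens, counted as significant.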

[2] = gene group (A), Unigene No. Rn.167075
[3] = gene group (C), Unigene No. Rn.120914

CCCCC(CC)COC(=O)c1ccccc1C(=O)OCC(CC)CCCC (centres unmarked) [TS002, Di(2-ethylhexyl)phthalate]
+: Behavior of gene caused by administration of chemical substance, Gene No. 2026 [1, 2] | Behavior of gene caused by administration of chemical substance, Gene No. 1494 ([1]; gene group (B), Unigene No. Rn.1430) | Behavior of gene caused by administration of chemical substance, Gene No. 2045 ([1]; gene group (B), Unigene No. Rn.19329) | Behavior of gene caused by administration of chemical substance, Gene No. 2203 ([1]; gene group (B), Unigene No. Rn.21240) | Behavior of gene caused by administration of chemical substance, Gene No. 533 ([1]; gene group (C), Unigene No. Rn.106184) | Behavior of gene caused by administration of chemical substance, Gene No. 725 ([1]; gene group (C), Unigene No. Rn.108075) | Behavior of gene caused by administration of chemical substance, Gene No. 4973 ([1]; gene group (C), Unigene No. Rn.118529) | Behavior of gene caused by administration of chemical substance, Gene No. 4095 ([1]; gene group (C), Unigene No. Rn.119024) | Behavior of gene caused by administration of chemical substance, Gene No. 1131 ([1]; gene group (C), Unigene No. Rn.144946) | Behavior of gene caused by administration of chemical substance, Gene No. 813 ([1]; gene group (C), Unigene No. Rn.201760) | Behavior of gene caused by administration of chemical substance, Gene No. 6742 ([1]; gene group (C), Unigene No. Rn.9779)
−: Behavior of gene caused by administration of chemical substance, Gene No. 4846 ([1]; gene group (A), Unigene No. Rn.144554) | Behavior of gene caused by administration of chemical substance, Gene No. 4218 [1, 2] | Behavior of gene caused by administration of chemical substance, Gene No. 6182 ([1]; gene group (A), Unigene No. Rn.5834) | Behavior of gene caused by administration of chemical substance, Gene No. 5600 ([1]; gene group (A), Unigene No. Rn.9836) | Behavior of gene caused by administration of chemical substance, Gene No. 1163 ([1]; gene group (C), Unigene No. Rn.11766) | Behavior of gene caused by administration of chemical substance, Gene No. 1334 [1, 3] | Behavior of gene caused by administration of chemical substance, Gene No. 6620 [1, 3] | Behavior of gene caused by administration of chemical substance, Gene No. 6303 ([1]; gene group (C), Unigene No. Rn.123063) | Behavior of gene caused by administration of chemical substance, Gene No. 5878 ([1]; gene group (C), Unigene No. Rn.143213) | Behavior of gene caused by administration of chemical substance, Gene No. 1562 ([1]; gene group (C), Unigene No. Rn.14744) | Behavior of gene caused by administration of chemical substance, Gene No. 1741 ([1]; gene group (C), Unigene No. Rn.1647) | Behavior of gene caused by administration of chemical substance, Gene No. 893 ([1]; gene group (C), Unigene No. Rn.164817) | Behavior of gene caused by administration of chemical substance, Gene No. 6026 ([1]; gene group (C), Unigene No. Rn.167685) | Behavior of gene caused by administration of chemical substance, Gene No. 154 ([1]; gene group (C), Unigene No. Rn.185941) | Behavior of gene caused by administration of chemical substance, Gene No. 1993 ([1]; gene group (C), Unigene No. Rn.18728) | Behavior of gene caused by administration of chemical substance, Gene No. 2494 ([1]; gene group (C), Unigene No. Rn.23969) | Behavior of gene caused by administration of chemical substance, Gene No. 2546 ([1]; gene group (C), Unigene No. Rn.24561) | Behavior of gene caused by administration of chemical substance, Gene No. 3776 ([1]; gene group (C), Unigene No. Rn.43232) | Behavior of gene caused by administration of chemical substance, Gene No. 3929 ([1]; gene group (C), Unigene No. Rn.4620) | Behavior of gene caused by administration of chemical substance, Gene No. 1119 ([1]; gene group (C), Unigene No. Rn.9757) | Behavior of gene caused by administration of chemical substance, Gene No. 5634 ([1]; gene group (C), Unigene No. Rn.9862) | Behavior of gene caused by administration of chemical substance, Gene No. 5726 ([1]; gene group (D), Unigene No. Rn.9939)
Cr+: Liver carcinogenicity (liver)
C+: Carcinogenicity (rodent)
